Results on 36 compounds are retold here after patent US20070213326A1, “SUBSTITUTED INDOLE COMPOUNDS AND THEIR USE AS 5-HT6 RECEPTOR MODULATORS” (LABORATORIOS DEL DR. ESTEVE S.A., priority 2004, published 2007).

Where a name gives a salt, the structure may show the parent alone.

T1 sequence (P50406 whole entry): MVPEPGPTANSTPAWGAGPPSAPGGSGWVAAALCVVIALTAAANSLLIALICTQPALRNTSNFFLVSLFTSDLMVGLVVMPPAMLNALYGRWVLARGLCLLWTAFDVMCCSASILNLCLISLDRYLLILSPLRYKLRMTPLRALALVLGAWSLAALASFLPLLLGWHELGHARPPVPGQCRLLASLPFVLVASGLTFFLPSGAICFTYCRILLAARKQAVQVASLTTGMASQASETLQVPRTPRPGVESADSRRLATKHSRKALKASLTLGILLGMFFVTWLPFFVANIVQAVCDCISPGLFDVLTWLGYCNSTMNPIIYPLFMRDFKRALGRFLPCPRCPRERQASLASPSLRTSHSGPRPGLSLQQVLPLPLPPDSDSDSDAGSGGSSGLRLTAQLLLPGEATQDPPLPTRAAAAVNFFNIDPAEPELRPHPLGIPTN

Tested on in the first series: not given
Assay: not given
Conditions: not given
In turn, `CN(C)CCc1c[nH]c2cc(NS(=O)(=O)c3ccc(-c4ccccc4)cc3)ccc12` had a melting point of 164 to 168 °C.

In turn, `CN(C)CCc1c[nH]c2cc(NS(=O)(=O)CCc3cccc4ccccc34)ccc12` showed a melting point of 90 °C. As for `CN(C)CCc1c[nH]c2cc(NS(=O)(=O)c3ccc(Oc4ccccc4)cc3)ccc12`, the melting point is 170 to 171 °C. In turn, `CN(C)CCc1c[nH]c2cc(NS(=O)(=O)c3cc(Cl)cc(Cl)c3)ccc12` gave a melting point of 96 to 98 °C. Compound `CN(C)CCc1c[nH]c2cc(NS(=O)(=O)c3cc(Cl)c(Cl)s3)ccc12` returned a melting point of 111 to 114 °C. For `CN(C)CCc1c[nH]c2cc(NS(=O)(=O)c3cccc4c(Cl)cccc34)ccc12`, the melting point is 187 to 190 °C. The same measure, in the same setting: under `CCN(CC)CCc1c[nH]c2cc(NS(=O)(=O)c3ccc4ccccc4c3)ccc12` stands 146 to 147 °C; under `CCOC(CN(C)C)c1c[nH]c2c(NS(=O)(=O)c3sc4ccc(Cl)cc4c3C)cccc12` (stereo not shown), 145 °C; under `Cc1c(S(=O)(=O)Nc2cccc3c(CCN(C)C)c[nH]c23)sc2ccc(Cl)cc12`, 130 to 140 °C.

`CCOC(CN(CC)CC)c1c[nH]c2c(N(S(=O)(=O)c3sc4ccc(Cl)cc4c3C)S(=O)(=O)c3sc4ccc(Cl)cc4c3C)cccc12` (stereo not shown): the melting point lay in the range of 155 to 156 °C. The compound `Cc1c(S(=O)(=O)N(c2cccc3c(CCN(C)C)c[nH]c23)S(=O)(=O)c2sc3ccc(Cl)cc3c2C)sc2ccc(Cl)cc12` yielded a melting point of 110 to 120 °C.

As for `CCN(CC)CCc1c[nH]c2c(N(S(=O)(=O)c3sc4ccc(Cl)cc4c3C)S(=O)(=O)c3sc4ccc(Cl)cc4c3C)cccc12`, the melting point was in the range of 87 to 90 °C. Consider `CCN(CC)CCc1c[nH]c2c(NS(=O)(=O)c3sc4ccc(Cl)cc4c3C)cccc12`, for which the melting point lay in the range of 79 to 84 °C. Compound `CN(C)CCc1c[nH]c2cccc(NS(=O)(=O)c3ccc(-c4ccccc4)cc3)c12` registered a melting point of 182 to 184 °C.

Compound `CN(C)CCc1c[nH]c2cccc(NS(=O)(=O)c3ccc(Oc4ccccc4)cc3)c12` yielded a melting point of 78 to 82 °C.

Compound `CCN(CC)CCc1c[nH]c2cc(NS(=O)(=O)c3cccc4ccccc34)ccc12` showed a melting point of 183 to 187 °C.

Compound `CN(C)CCc1c[nH]c2cccc(NS(=O)(=O)c3cc(Cl)cc(Cl)c3)c12` showed a melting point of 212 to 215 °C. The same measure, in the same setting: under `Cc1c(S(=O)(=O)Nc2cccc3[nH]cc(CCN(C)C)c23)sc2ccc(Cl)cc12` stands 235 to 236 °C.

Consider `CN(C)CCc1c[nH]c2cccc(NS(=O)(=O)c3cccc4ccccc34)c12`, for which the melting point was in the range of 223 to 225 °C. Same read-out and setting: under `CN(C)CCc1c[nH]c2cccc(NS(=O)(=O)c3ccc4c(Cl)cccc4c3)c12` stands 198 to 200 °C; under `CN(C)CCc1c[nH]c2cccc(NS(=O)(=O)c3ccc4ccccc4c3)c12`, 165 to 168 °C. On to `CN(C)CCc1c[nH]c2cccc(NS(=O)(=O)c3c(Cl)nc4sccn34)c12`, for which the melting point was 216 °C.

`CN(C)CCc1c[nH]c2cc(N(S(=O)(=O)c3c(Cl)nc4sccn34)S(=O)(=O)c3c(Cl)nc4sccn34)ccc12` yielded a melting point of 210 °C.

For the compound `CN(C)CCc1c[nH]c2cc(N(S(=O)(=O)c3cc(Cl)cc(Cl)c3)S(=O)(=O)c3cc(Cl)cc(Cl)c3)ccc12`, the melting point was 103 to 107 °C. Still for that read-out and setting: the figure for `CN(C)CCc1c[nH]c2cc(N(S(=O)(=O)c3cc(Cl)c(Cl)s3)S(=O)(=O)c3cc(Cl)c(Cl)s3)ccc12` is 187 to 188 °C; for `CCOC(CN(C)C)c1c[nH]c2cc(N(S(=O)(=O)c3sc4ccc(Cl)cc4c3C)S(=O)(=O)c3sc4ccc(Cl)cc4c3C)ccc12` (stereo not shown) it is 208 °C; for `CCN(CC)CCc1c[nH]c2cc(NS(=O)(=O)c3ccc(-c4ccccc4)cc3)ccc12` it is 81 to 85 °C. Compound `CCN(CC)CCc1c[nH]c2cc(NS(=O)(=O)c3ccc(Oc4ccccc4)cc3)ccc12` yielded a melting point of 50 to 53 °C. Turning to `CCN(CC)CCc1c[nH]c2cc(NS(=O)(=O)c3cc(Cl)cc(Cl)c3)ccc12`, the melting point was in the range of 79 to 85 °C. The same measure, in the same setting: the figure for `CCN(CC)CCc1c[nH]c2cc(NS(=O)(=O)c3cc(Cl)c(Cl)s3)ccc12` is 200 to 205 °C.

On to `CCN(CC)CCc1c[nH]c2cc(NS(=O)(=O)c3cccc4c(Cl)cccc34)ccc12`, for which the melting point was 86 to 90 °C. On the same count and under the same terms, the figure for `CN(C)CCc1c[nH]c2cccc(NS(=O)(=O)CCc3cccc4ccccc34)c12` (as salt: TFA) is 170 to 172 °C. For the compound `CCN(CC)CCc1c[nH]c2cc(NS(=O)(=O)c3c(Cl)nc4sccn34)ccc12` [Example 4, 6-chloro-N-(3-(2-(diethylamino)ethyl)-1H-indol-6-yl)imidazo[2,1-b]thiazole-5-sulfonamide], the melting point fell in the range of 210 to 212 °C. `CN(C)CCc1c[nH]c2cc(NS(=O)(=O)c3ccc4ccccc4c3)ccc12` [Example 11, N-(3-(2-(dimethylamino)ethyl)-1H-indol-6-yl)naphthalene-2-sulfonamide] showed a melting point of 150 to 151 °C. Turning to `CN(C)CCc1c[nH]c2cc(NS(=O)(=O)c3cccc4ccccc34)ccc12` [Example 12, N-(3-(2-(dimethylamino)ethyl)-1H-indol-6-yl)naphthalene-1-sulfonamide], the melting point was 167 to 168 °C. Still for that read-out and setting: the figure for `CN(C)CCc1c[nH]c2cc(NS(=O)(=O)c3c(Cl)nc4sccn34)ccc12` [Example 13, 6-chloro-N-(3-(2-(dimethylamino)ethyl)-1H-indol-6-yl)imidazo[2,1-b]thiazole-5-sulfonamide] is 138 to 142 °C.

The next series addresses T1, 5HT6-human recombinant receptor (Homo sapiens, UniProt P50406).
T1 construct: purchased Receptor Biology; host or cells: HEK-293 cells (membranes)
Put plainly: Binding to serotonin receptor 5-HT6 ([H]-LSD radioligand, HEK-293 cell membranes). The conditions noted are these: membranes of HEK-293 cells expressing 5HT6-human recombinant receptor; [H]-LSD 2.7 nM; 60 minutes at 37° C. The protocol: I) Binding to Serotonin Receptor 5-HT6
Cell membranes of HEK-293 cells expressing the 5HT6-human recombinant receptor were supplied by Receptor Biology. In said membranes the receptor concentration is 2.18 pmol/mg protein and the protein concentration is 9.17 mg/ml. The experimental protocol follows the method of B. L. Roth et al. [B. L. Roth, S. C. Craigo, M. S. Choudhary, A. Uluer, F. J. Monsma, Y. Shen, H. Y. Meltzer, D. R. Sibley: Binding of Typical and Atypical Antipsychotic Agents to 5-Hydroxytryptamine-6 and Hydroxytryptamine-7 Receptors. The Journal of Pharmacology and Experimental Therapeutics, 1994, 268, 1403] with the following slight changes. The respective part of the literature description is hereby incorporated by reference and forms part of the disclosure.
The commercial membrane is diluted (1:40 dilution) with the binding buffer: 50 mM Tris-HCl, 10 mM MgCl2, 0.5 mM EDTA (pH 7.4). The radioligand used is [H]-LSD at a concentration of 2.7 nM with a final volume of 200 μl. Incubation is initiated by adding 100 μl of membrane suspension, (≈22.9 μg membrane protein), and is prolonged for 60 minutes at a temperature of 37° C. The incubation is ended by fast filtration in a Brandel Cell Harvester through fiber glass filters made by Schleicher & Schuell G F 3362 pretreated with a solution of polyethylenimine at 0.5%. The filters are washed three times with three milliliters of buffer Tris-HCl 50 mM pH 7.4. The filters are transferred to flasks and 5 ml of Ecoscint H liquid scintillation cocktail are added to each flask. The flasks are allowed to reach equilibrium for several hours before counting with a Wallac Winspectral 1414 scintillation counter. Non-specific binding is determined in the presence of 100 μM of serotonin. Tests were made in triplicate. The inhibition constants (Ki, nM) were calculated by non-linear regression analysis using the program EBDA/LIGAND described in Munson and Rodbard, Analytical Biochemistry, 1980, 107, 220, the respective part of which is hereby incorporated by reference and forms part of the disclosure.
The binding of the substituted indole compounds to the 5-HT6 receptor was determined as described above.
`CCN(CC)CCc1c[nH]c2cc(NS(=O)(=O)c3c(Cl)nc4sccn34)ccc12` [Example 4, 6-chloro-N-(3-(2-(diethylamino)ethyl)-1H-indol-6-yl)imidazo[2,1-b]thiazole-5-sulfonamide]: the inhibition constant Ki stood at 42.8 nM. As for `CN(C)CCc1c[nH]c2cc(NS(=O)(=O)c3ccc4ccccc4c3)ccc12` [Example 11, N-(3-(2-(dimethylamino)ethyl)-1H-indol-6-yl)naphthalene-2-sulfonamide], the inhibition constant (Ki) amounted to 42.6 nM. For the compound `CN(C)CCc1c[nH]c2cc(NS(=O)(=O)c3cccc4ccccc34)ccc12` [Example 12, N-(3-(2-(dimethylamino)ethyl)-1H-indol-6-yl)naphthalene-1-sulfonamide], the Ki stood at 31.1 nM. Still for that read-out and setting: under `CN(C)CCc1c[nH]c2cc(NS(=O)(=O)c3c(Cl)nc4sccn34)ccc12` [Example 13, 6-chloro-N-(3-(2-(dimethylamino)ethyl)-1H-indol-6-yl)imidazo[2,1-b]thiazole-5-sulfonamide] stands 7.3 nM.
